Test results as given in PubChem BioAssay (NCI).
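Assay format: 96-well plates, 48-hour exposure. GI50 = concentration required for 50% inhibition of growth. At the TGI there is no net growth.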

Legend:
Experiment in all cases: NCI tumour cell line growth inhibition, 48 h
[1] = system: XF 498 CNS
[2] = system: KM20L2 colon
[3] = system: HOP-18 NSCLC
[4] = system: LXFL 529 NSCLC
[5] = system: DMS 273 small cell lung
[6] = system: RXF-631 renal
[7] = system: P388/ADR leukemia
[8] = system: P388 leukemia
[9] = system: SN12K1 renal

Structure (SMILES) | TGI [1] [µM] | TGI [2] [µM] | TGI [3] [µM] | TGI [4] [µM] | TGI [5] [µM] | TGI [6] [µM] | TGI [7] [µM] | TGI [8] [µM] | TGI [9] [µM] | GI50 [2] [µM]
[N-]=[N+]=CC(=O)C1(C(=O)C=[N+]=[N-])CC1 | > 100 | > 100 | > 100 | > 100 | > 100 |  |  |  |  | 
CCOC(=O)/C(Br)=C1\OC(=O)c2ccccc2-c2ccccc21 | > 100 |  | > 100 | 99 | > 100 | > 100 |  |  |  | 
Cc1cc(N(CCC#N)S(=O)(=O)c2ccccc2)ccc1C=Nc1cccc(C(=O)O)c1 |  | > 100 | > 100 | > 100 |  | > 100 |  |  |  | 
CCC(=O)OC1CCn2c1nc1c2C(=O)C(C)=C(NC(C)=O)C1=O (stereo not drawn) |  |  |  | 2.72 | 3.37 |  |  |  |  | 
CC(C)OP(=O)(OC(C)C)C(=NCCO)NNc1ccc([N+](=O)[O-])cc1 | > 100 | > 100 |  | > 100 | > 100 |  |  |  |  | 
O=C(NN1C(=O)C(Cl)C1c1cccc(O)c1)c1ccccc1O (stereo not drawn) | > 100 |  | > 100 | > 100 | > 100 |  |  |  |  | 
CC(=O)c1ccc(N2C(=O)C3c4[nH]c5ccccc5c4C4CCC(C(C)(C)C)CC4C3C2=O)cc1 (stereo not drawn) |  | 36.4 | > 100 | > 100 | 33.3 |  |  |  |  | 
c1ccc2c(c1)nnn2CNc1ccc(N2CCCCC2)cc1 | > 100 | > 100 | > 100 | > 100 | > 100 |  |  |  |  | 
Oc1ccc(-c2c3ccccc3c(-c3ccc(O)cc3)c3ccccc23)cc1 | > 100 | > 100 | > 100 | > 100 | > 100 |  |  |  |  | 
CC1(CO)C(O)CCC2(C)C1CCC1CC3CC12CCC3(O)CO (stereo not drawn) | > 100 | > 100 | > 100 |  | > 100 |  | 12.6 | 6.66 | > 100 | 
Cc1ccc2nc(N)[nH]c(=O)c2c1Sc1ccncc1 | > 100 | > 100 | > 100 | > 100 | > 100 |  |  |  |  | 
N#C/C(=C\c1ccc(O)c(O)c1)c1c(C#N)c(N)nn1-c1ccccc1 |  | > 100 | 29.1 | 92.5 | 18.5 |  |  |  |  | 
O=C([CH-]C(=O)c1ccccc1)c1ccccc1.[C-]#[O+].[C-]#[O+].[Ir] |  | > 100 |  |  |  |  |  |  |  | 39.7
CCN(CC)CC1CCCCN1CC(=O)N1c2cc(Cl)ccc2NC(=O)CC1C (stereo not drawn) | > 100 | > 100 |  | > 100 | > 100 |  |  |  |  | 
CC(=O)Nc1ccc(-c2nnc(SCC(=O)Nc3cccc(C)c3)o2)cc1 |  | 22 | 29.7 | 22.8 | 23 |  |  |  |  | 
Cc1ccc(S(=O)(=O)NC(=O)C2S(=O)(=O)OCCOS2(=O)=O)cc1 | > 100 |  |  | > 100 | > 100 | > 100 |  |  |  | 
CCCCn1c(-c2ccccc2)cs/c1=N\N=C1C=C(C(C)(C)C)C(=O)C(C(C)(C)C)=C1 | > 100 | > 100 |  | > 100 | > 100 | > 100 |  |  |  | 
